SMILES strings stand for the structures. Values joined by “and” are separate entries in the source; they are usually repeats but may differ in a detail not shown here. Identical values can stand only once.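 Briefly, cells in 96-well plates were exposed to five compound concentrations for 48 h, and endpoints were estimated by linear interpolation. At the GI50, growth is halved. TGI marks complete inhibition of growth.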

Among the test systems are BT-549 breast; HOP-62 NSCLC; IGROV1 ovarian; KM12 colon; MOLT-4 leukemia; NCI-H226 lung; NCI/ADR-RES ovarian; PC-3 prostate; SK-MEL-2 melanoma; SK-OV-3 ovarian.
What all share (experiment): inhibition of tumour cell growth, NCI panel, 48 h

`Cc1cn(C2CC(N=[N+]=[N-])C(CO)O2)c(=O)[nH]c1=O` (stereo not drawn): the TGI in the experiment on BT-549 breast, in the experiment on HOP-62 NSCLC, with IGROV1 ovarian, in the experiment on KM12 colon, in the experiment with MOLT-4 leukemia and in the experiment on NCI-H226 lung was above 1000 µM throughout. Also, the TGI in the experiment with NCI/ADR-RES ovarian, in the experiment on PC-3 prostate, in the experiment with SK-MEL-2 melanoma and in the experiment with SK-OV-3 ovarian was above 1000 µM each time. Also, the GI50 is above 1000 µM with HOP-62 NSCLC; above 1000 µM in the experiment on IGROV1 ovarian; 472 µM in the experiment on KM12 colon; above 1000 µM in the experiment on MOLT-4 leukemia; above 1000 µM with NCI-H226 lung; 296 µM in the experiment on NCI/ADR-RES ovarian. Further, the GI50 in the experiment with SK-MEL-2 melanoma and in the experiment with SK-OV-3 ovarian was above 1000 µM throughout.

For the molecule `N#Cc1ccc(N2Cc3cc(Cl)ccc3OC3=C2C(=O)N(Cc2ccc(F)cc2)C3=O)cc1`, the GI50 is 0.174 µM in the experiment with BT-549 breast; 2.72 µM in the experiment on HOP-62 NSCLC; 0.804 µM in the experiment with IGROV1 ovarian; 1.83 µM in the experiment with KM12 colon; 0.291 µM in the experiment with MOLT-4 leukemia; 1.62 µM in the experiment on NCI-H226 lung. The GI50 in the experiment with NCI/ADR-RES ovarian is 0.85 µM; with PC-3 prostate, 0.8 µM; with SK-MEL-2 melanoma, 0.314 µM; in the experiment on SK-OV-3 ovarian, 16.2 µM. Further, the TGI with BT-549 breast was determined as 0.356 µM; in the experiment on HOP-62 NSCLC, 10.1 µM; with IGROV1 ovarian, 2.14 µM; in the experiment with KM12 colon, 6.59 µM; in the experiment on MOLT-4 leukemia it was 1.26 µM; in the experiment with NCI-H226 lung, 3.75 µM. The TGI is 8.58 µM in the experiment on NCI/ADR-RES ovarian, 2.5 µM in the experiment with PC-3 prostate, 0.867 µM with SK-MEL-2 melanoma and 55.7 µM in the experiment on SK-OV-3 ovarian.

Consider `O=C1/C(=C\c2ccc([N+](=O)[O-])cc2)CS(=O)(=O)C/C1=C/c1ccc([N+](=O)[O-])cc1`, for which the TGI was 0.845 µM and 1.12 µM with BT-549 breast; 3.94 µM in the experiment on HOP-62 NSCLC; 0.841 µM and 2.22 µM in the experiment on IGROV1 ovarian; 1.46 µM in the experiment on KM12 colon; 3.15 µM with NCI/ADR-RES ovarian; 0.713 µM and 1.51 µM in the experiment on PC-3 prostate. Further, the TGI in the experiment on SK-MEL-2 melanoma stood at 3.17 µM; in the experiment with SK-OV-3 ovarian, 15.5 µM. The GI50 in the experiment on HOP-62 NSCLC was 0.284 µM; in the experiment with IGROV1 ovarian, 0.275 µM; in the experiment on KM12 colon, 0.25 µM; in the experiment on NCI-H226 lung, 0.163 µM; in the experiment on NCI/ADR-RES ovarian, 0.315 µM; with PC-3 prostate, 0.194 µM. Besides, the GI50 with SK-MEL-2 melanoma was 0.366 µM.

With `CCCCCCCCn1ccc2cc(NC(=O)Cn3cc(CN4CCC(C)CC4)nn3)ccc21`, the GI50 in the experiment on BT-549 breast is 1.53 µM; in the experiment on HOP-62 NSCLC it was 1.76 µM; with IGROV1 ovarian, 1.43 µM; in the experiment on KM12 colon, 1.81 µM; in the experiment on MOLT-4 leukemia, 2.02 µM; in the experiment on NCI-H226 lung, 1.75 µM. The GI50 in the experiment on NCI/ADR-RES ovarian is 1.92 µM; with PC-3 prostate, 1.73 µM; in the experiment with SK-MEL-2 melanoma it was 1.85 µM; with SK-OV-3 ovarian, 1.9 µM. In addition, the TGI in the experiment with BT-549 breast is 3.01 µM; with HOP-62 NSCLC it was 3.4 µM; in the experiment on IGROV1 ovarian it was 2.96 µM; in the experiment with KM12 colon, 3.39 µM; with MOLT-4 leukemia, 5.55 µM; with NCI-H226 lung it was 3.83 µM. In addition, the TGI in the experiment with NCI/ADR-RES ovarian came to 3.99 µM; with PC-3 prostate, 3.68 µM; in the experiment on SK-MEL-2 melanoma it was 3.53 µM; in the experiment with SK-OV-3 ovarian, 3.7 µM.

For `COC(=O)c1c2c(c(C)[n+]([O-])c1C)C(=O)C=C(NCc1ccc(Br)cc1)C2=O`, the GI50 in the experiment with BT-549 breast was 1.15 µM; in the experiment on HOP-62 NSCLC, 1.05 µM; in the experiment with IGROV1 ovarian it was 0.473 µM; with KM12 colon, 0.171 µM; in the experiment with MOLT-4 leukemia, 0.87 µM; in the experiment with NCI-H226 lung, 1.3 µM. The GI50 in the experiment with NCI/ADR-RES ovarian is 0.332 µM; in the experiment with PC-3 prostate, 0.428 µM; with SK-MEL-2 melanoma, 1.55 µM; with SK-OV-3 ovarian, 1.52 µM. Also, the TGI in the experiment on BT-549 breast came to 2.53 µM; in the experiment with HOP-62 NSCLC, 2.47 µM; in the experiment with IGROV1 ovarian, 2.14 µM; in the experiment with KM12 colon, 1.81 µM; in the experiment on MOLT-4 leukemia, 3.99 µM; in the experiment with NCI-H226 lung it was 2.98 µM. Moreover, the TGI came out at 3.31 µM with NCI/ADR-RES ovarian, 3.37 µM in the experiment on PC-3 prostate, 4.13 µM with SK-MEL-2 melanoma and 3.41 µM in the experiment with SK-OV-3 ovarian.

`O=Cc1c[nH]c2ccc(-c3csc4ccccc34)cc12`: the GI50 in the experiment with BT-549 breast was 2.5 µM; in the experiment with HOP-62 NSCLC it was 3.06 µM; in the experiment on IGROV1 ovarian it was 3.81 µM; with KM12 colon it was 3.39 µM; with MOLT-4 leukemia, 3.1 µM; in the experiment on NCI-H226 lung, 3.7 µM. Besides, the GI50 in the experiment on NCI/ADR-RES ovarian was 4.09 µM; in the experiment on PC-3 prostate, 3.02 µM; in the experiment with SK-MEL-2 melanoma, 2.65 µM; in the experiment with SK-OV-3 ovarian, 5.34 µM. Moreover, the TGI was 8.75 µM in the experiment on BT-549 breast; 39.9 µM with HOP-62 NSCLC; 59.9 µM in the experiment with IGROV1 ovarian; above 100 µM in the experiment with KM12 colon; 19.1 µM in the experiment on MOLT-4 leukemia; above 100 µM in the experiment with NCI-H226 lung. Further, the TGI in the experiment with NCI/ADR-RES ovarian, with PC-3 prostate, with SK-MEL-2 melanoma and with SK-OV-3 ovarian was above 100 µM throughout.

Consider `O=c1[nH]cc(CO)c(=O)[nH]1`, for which the GI50 in the experiment with BT-549 breast, in the experiment with HOP-62 NSCLC, with IGROV1 ovarian, with KM12 colon, in the experiment with MOLT-4 leukemia and in the experiment with NCI/ADR-RES ovarian was above 100 µM throughout. Also, the GI50 with PC-3 prostate, with SK-MEL-2 melanoma and with SK-OV-3 ovarian was above 100 µM each time. Moreover, the TGI in the experiment on BT-549 breast, with HOP-62 NSCLC, with IGROV1 ovarian, in the experiment with KM12 colon, in the experiment on MOLT-4 leukemia and in the experiment on NCI/ADR-RES ovarian was above 100 µM in each case. Besides, the TGI with PC-3 prostate, in the experiment on SK-MEL-2 melanoma and in the experiment on SK-OV-3 ovarian was above 100 µM in each case.

With `O=C1C=CC(=O)c2c1cc1ccccc1c2O`, the TGI worked out at 21.6 µM with BT-549 breast; 26.6 µM in the experiment with HOP-62 NSCLC; 15.6 µM in the experiment on IGROV1 ovarian; 26.4 µM in the experiment on KM12 colon; 37.6 µM in the experiment on NCI-H226 lung; 25.8 µM with NCI/ADR-RES ovarian. The TGI with PC-3 prostate was 19.1 µM; in the experiment with SK-MEL-2 melanoma, 30.9 µM; in the experiment on SK-OV-3 ovarian it was 34.3 µM.

For the molecule `CC[C@@]1(O)C(=O)OCc2c1cc1n(c2=O)Cc2cc3c(Cl)c4c(cc3nc2-1)OCO4`, the GI50 in the experiment with BT-549 breast was below 0.001 µM; with HOP-62 NSCLC, below 0.001 µM; in the experiment with IGROV1 ovarian, 0.121 µM and 0.285 µM; in the experiment with KM12 colon it was 0.162 µM and 0.108 µM; with MOLT-4 leukemia, below 0.001 µM; in the experiment with NCI-H226 lung, below 0.001 µM. Besides, the GI50 in the experiment with NCI/ADR-RES ovarian is below 0.001 µM; in the experiment on SK-OV-3 ovarian, 0.00265 µM and 0.0176 µM. The TGI is 0.897 µM and 0.382 µM in the experiment with BT-549 breast; above 100 µM with IGROV1 ovarian; above 100 µM in the experiment on KM12 colon; 0.0701 µM in the experiment on NCI-H226 lung; above 100 µM in the experiment with PC-3 prostate.

For the origin of these results see PubChem BioAssay (NCI).
